Results as given in patent US20130237530A1, “BENZODIAZEPINE DERIVATIVES, COMPOSITIONS AND METHODS FOR TREATING COGNITIVE IMPAIRMENT” (priority 2010, published 2013).
“Also recorded” adds a separate entry of the source. Read-outs that look alike come from different tables or passages of the source.

How the values were obtained:
[1] = tested on: aged-impaired (AI) rats; experiment: Morris water maze behavioral task, ICV infusion; type: in vivo, rat; conditions: 100 μg ICV
Experimental: The effects of 6,6 dimethyl-3-(3-hydroxypropyl)thio-1-(thiazol-2-yl)-6,7-dihydro-2-benzothiophen-4(5H)-one on the in vivo spatial memory retention of aged-impaired (AI) rats were assessed in a Morris water maze behavioral task. A water maze is a pool surrounded with a novel set of patterns relative to the maze.
Cognitively impaired aged rats were implanted unilaterally with a cannula into the lateral ventricle. Stereotaxic coordinates were 1.0 mm posterior to bregma, 1.5 mm lateral to midline, and 3.5 mm ventral to the skull surface. After about a week of recovery, the rats were pre-trained in a water maze for 2 days (6 trials per day) to locate a submerged escape platform hidden underneath the surface of the pool, in which the escape platform location varied from day to day. No intracerebroventricular (ICV) infusion was given during pre-training
After pre-training, rats received ICV infusion of either 100 μg 6,6 dimethyl-3-(3-hydroxypropyl)thio-1-(thiazol-2-yl)-6,7-dihydro-2-benzothiophen-4(5H)-one (n=6) in 5 μl DMSO or vehicle DMSO (n=5) 40 min prior to water maze training and testing. Training consisted of 8 trials per day for 2 days where the hidden escape platform remained in the same location. Rats were given 60 seconds to locate the platform with a 60 seconds inter-trial interval. The rats were given a probe test (120 seconds) 24 hr after the end of training where the escape platform was removed. During the training, there were 4 blocks, where each block had 4 training trials.
During a test trial 24 hr after training, the escape platform was removed. The search/swim pattern of the rats was used to measure whether the rats remember where the escape platform was located during pre-trial training in order to test for the long-term memory of the rats. In this trial, “target annulus” is a designated area 1.5 times the size of the escape platform around the area where the platform was located during pre-trial training “Opposite annulus” is a control area of the same size as the size of the target annulus, which is located opposite to the target annulus in the pool. If the rats had good long term memory, they would tend to search in the area surrounding the location where the platform was during the pre-trial training (i.e., the “target” annulus; and not the “opposite” annulus). “Time in annulus” is the amount of time in seconds that the rat spent in the target or opposite annulus area. “Number (#) of crossings” in annulus is the number of times the rat swam across the target or opposite annulus area.

[2] = molecular target: T1, GABAA receptors (α5β3γ2) (Homo sapiens, UniProt P18507+P28472+P31644); experiment: Potentiation of GABA EC50 current, two-electrode voltage clamp (TEVC) in Xenopus oocytes expressing GABAA α5β3γ2; type: cell-based; conditions: read-out: GABA α5 EC50 % potentiation
T1 construct: myc-His (from vector pcDNA3.1 myc-His); expressed in transfected cells; host or cells: Xenopus laevis oocytes injected with cDNAs in pcDNA3.1 / pcDNA3.1 myc-His
Experimental: The agonist activity of the compounds of this invention was determined by measuring their effect on GABA-gated Cl— current from Xenopus oocytes expressing GABAA α5β3γ2 subtype receptor in a two-electrode voltage clamp (TEVC) setup.
In this study, the GABA-gated Cl^− current from oocytes expressing GABAAR α5β3γ2 subtype was measured in the TEVC setup in the presence of the test compounds. […] Upon conclusion of compound testing and successful washout, a 1.0 μM diazepam was tested and used for comparative activity on the two GABAAR subtypes.
Other concentrations of the test compound may also be tested following the same protocol.
Results are expressed as mean±SEM.

[3] = in vivo; type: in vivo, Long Evans rats; conditions: male, Long Evans, rat, iv, tracer 1 μg/kg, i.v., after vehicle administration
From the text: (§1) Food and water were available ad libitum.

[4] = tested on: GABAA α5 receptor; experiment: in vivo; type: in vivo, Long Evans rats; conditions: i.v.; for effect on Ro 15-4513 binding/levels in cerebellum: 0.01-10 mg/kg
From the text: as §1

[5] = molecular target: T2, GABAA α5 receptor (Rattus norvegicus, UniProt P18508+P19969); experiment: in vivo; type: in vivo, Long Evans rats; conditions: for effect on Ro 15-4513 binding in hippocampus: 0.01-10 mg/kg; for dose dependence of GABAA α5 receptor occupancy: administered intravenously
T2 construct: from tissue; host or cells: rat brain in vivo; hippocampus compared with cerebellum
From the text: as §1

[6] = tested on: aged-impaired (AI) rats; experiment: Radial Arm Maze (RAM) behavioral task, spatial memory retention; type: in vivo, rat
Experimental: The effects of methyl 3,5-diphenylpyridazine-4-carboxylate on the in vivo spatial memory retention of aged-impaired (AI) rats were assessed in a Radial Arm Maze (RAM) behavioral task using vehicle control and four different dosage levels of methyl 3,5-diphenylpyridazine-4-carboxylate ([…]). RAM behavioral tasks were performed on eight AI rats. All five treatment conditions (vehicle and four dosage levels) were tested on all eight rats.
The RAM apparatus used consisted of eight equidistantly-spaced arms. An elevated maze arm (7 cm width×75 cm length) projected from each facet of an octagonal center platform (30 cm diameter, 51.5 cm height). Clear side walls on the arms were 10 cm high and were angled at 65° to form a trough. A food well (4 cm diameter, 2 cm deep) was located at the distal end of each arm. Froot Loops™ (Kellogg Company) were used as rewards. Blocks constructed of Plexiglas™ (30 cm height×12 cm width) could be positioned to prevent entry to any arm. Numerous extra maze cues surrounding the apparatus were also provided.
The AI rats were initially subjected to a pre-training test (Chappell et al. Neuropharmacology 37: 481-487, 1998). The pre-training test consisted of a habituation phase (4 days), a training phase on the standard win-shift task (18 days) and another training phase (14 days) in which a brief delay was imposed between presentation of a subset of arms designated by the experimenter (e.g., 5 arms available and 3 arms blocked) and completion of the eight-arm win-shift task (i.e., with all eight arms available).
In the habituation phase, rats were familiarized to the maze for an 8-minute session on four consecutive days. In each of these sessions, food rewards were scattered on the RAM, initially on the center platform and arms and then progressively confined to the arms. After this habituation phase, a standard training protocol was used, in which a food pellet was located at the end of each arm. Rats received one trial each day for 18 days. Each daily trial terminated when all eight food pellets had been obtained or when either 16 choices were made or 15 minutes had elapsed. After completion of this training phase, a second training phase was carried out in which the memory demand was increased by imposing a brief delay during the trial. At the beginning of each trial, three arms of the eight-arm maze were blocked. Rats were allowed to obtain food on the five arms to which access was permitted during this initial “information phase” of the trial. Rats were then removed from the maze for 60 seconds, during which time the barriers on the maze were removed, thus allowing access to all eight arms. Rats were then placed back onto the center platform and allowed to obtain the remaining food rewards during this “retention test” phase of the trial. […]

[7] = in vivo; type: in vivo, Long Evans rats; conditions: for concentration at 35 min: male, young Long Evans rats
Experimental: as §1
For plasma exposures, blood samples were centrifuged at 14000 rpm for 16 minutes. After centrifuging, 50 ul of supernatant (plasma) from each sample was added to 200 μl of acetonitrile plus 0.1% formic acid. […] Samples were sonicated for 5 minutes in an ultrasonic water bath, followed by centrifugation for 30 minutes, at 16000 RPM. 100 ul of supernatant was removed from each sample vial and placed in a new glass auto sample vial, followed by the addition of 300 μl of sterile water (pH 6.5).
Additional studies were conducted in aged Long-Evans rats in order to determine the exposures at the behaviorally relevant doses in the cognition studies. Exposure in young Long-Evans rats was also determined to bridge with the receptor occupancy studies that were conducted in young Long-Evans rats. Exposures in young and aged Long-Evans rats were relatively similar (Table 3, FIG. 4).

[8] = molecular target: α5-containing GABAA R (Homo sapiens, UniProt P18507+P31644); conditions: (EC20); van Niel et al. J. Med. Chem. 2005; cited from earlier work
[9] = probe test 24 hr after training
[10] = dose increase from 1 to 10 mg/kg, i.v.

T2 sequence (P19969 32-464 limits assumed): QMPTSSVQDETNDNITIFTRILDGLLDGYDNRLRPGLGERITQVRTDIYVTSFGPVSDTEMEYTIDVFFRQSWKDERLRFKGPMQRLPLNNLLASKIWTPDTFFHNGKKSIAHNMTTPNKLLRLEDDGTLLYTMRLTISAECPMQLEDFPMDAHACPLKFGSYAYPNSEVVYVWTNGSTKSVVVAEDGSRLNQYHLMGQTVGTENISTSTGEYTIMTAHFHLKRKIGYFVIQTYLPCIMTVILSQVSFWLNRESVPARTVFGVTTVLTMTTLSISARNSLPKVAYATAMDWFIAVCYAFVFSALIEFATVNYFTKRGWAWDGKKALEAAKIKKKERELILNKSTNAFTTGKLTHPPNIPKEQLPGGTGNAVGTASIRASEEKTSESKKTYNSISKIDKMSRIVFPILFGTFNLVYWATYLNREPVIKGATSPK
T2 sequence (P18508 39-466): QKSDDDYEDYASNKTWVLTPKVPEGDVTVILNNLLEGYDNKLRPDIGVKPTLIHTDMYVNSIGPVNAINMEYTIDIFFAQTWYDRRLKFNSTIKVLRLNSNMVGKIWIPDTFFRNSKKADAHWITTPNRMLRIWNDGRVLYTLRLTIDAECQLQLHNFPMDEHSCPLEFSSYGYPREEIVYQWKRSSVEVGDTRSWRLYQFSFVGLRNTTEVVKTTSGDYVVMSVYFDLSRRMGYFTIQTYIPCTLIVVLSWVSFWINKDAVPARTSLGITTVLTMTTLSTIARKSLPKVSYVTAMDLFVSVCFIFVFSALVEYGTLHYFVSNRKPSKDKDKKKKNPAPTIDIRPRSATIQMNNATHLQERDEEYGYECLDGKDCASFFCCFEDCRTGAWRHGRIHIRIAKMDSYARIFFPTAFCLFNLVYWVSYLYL
T1 sequence (P31644 32-462): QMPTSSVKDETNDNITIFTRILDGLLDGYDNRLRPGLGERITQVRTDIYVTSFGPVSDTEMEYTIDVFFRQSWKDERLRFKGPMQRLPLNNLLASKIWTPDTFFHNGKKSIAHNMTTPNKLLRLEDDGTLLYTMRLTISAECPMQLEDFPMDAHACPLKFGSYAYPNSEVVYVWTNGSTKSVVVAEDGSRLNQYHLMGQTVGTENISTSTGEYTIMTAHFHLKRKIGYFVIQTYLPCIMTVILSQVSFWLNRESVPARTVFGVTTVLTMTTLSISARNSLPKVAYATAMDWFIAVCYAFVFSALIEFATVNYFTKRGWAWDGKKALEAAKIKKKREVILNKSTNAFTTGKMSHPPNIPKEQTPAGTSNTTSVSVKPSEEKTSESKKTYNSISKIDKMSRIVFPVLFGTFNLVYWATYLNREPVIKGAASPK
T1 sequence (P28472 26-473): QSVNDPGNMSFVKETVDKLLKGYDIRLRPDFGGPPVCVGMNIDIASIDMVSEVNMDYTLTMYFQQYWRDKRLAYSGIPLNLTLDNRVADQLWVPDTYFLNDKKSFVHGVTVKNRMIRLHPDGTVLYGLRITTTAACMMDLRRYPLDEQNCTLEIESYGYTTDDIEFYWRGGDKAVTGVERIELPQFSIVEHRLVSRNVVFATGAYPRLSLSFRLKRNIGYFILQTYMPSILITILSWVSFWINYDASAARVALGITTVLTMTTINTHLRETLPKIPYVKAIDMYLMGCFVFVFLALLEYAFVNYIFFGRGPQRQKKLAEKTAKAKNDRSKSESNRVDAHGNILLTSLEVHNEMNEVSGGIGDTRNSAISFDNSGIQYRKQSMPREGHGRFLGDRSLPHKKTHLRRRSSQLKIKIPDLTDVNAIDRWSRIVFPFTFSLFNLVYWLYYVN
T1 sequence (P18507 40-475): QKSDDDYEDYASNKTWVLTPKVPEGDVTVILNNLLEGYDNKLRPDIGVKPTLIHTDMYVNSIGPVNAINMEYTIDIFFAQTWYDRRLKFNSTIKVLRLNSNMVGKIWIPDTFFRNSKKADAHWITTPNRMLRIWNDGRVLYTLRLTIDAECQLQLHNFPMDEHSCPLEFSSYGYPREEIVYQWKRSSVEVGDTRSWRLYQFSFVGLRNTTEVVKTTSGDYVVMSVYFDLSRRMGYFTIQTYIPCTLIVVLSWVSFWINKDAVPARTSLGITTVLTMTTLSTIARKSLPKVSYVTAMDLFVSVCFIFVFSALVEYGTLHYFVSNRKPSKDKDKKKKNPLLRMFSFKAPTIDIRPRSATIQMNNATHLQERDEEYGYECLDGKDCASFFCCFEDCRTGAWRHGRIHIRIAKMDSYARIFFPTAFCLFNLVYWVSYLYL
Sequence of α5-containing GABAA R (P31644 32-462): as the sequence (P31644 32-462) above
Sequence of α5-containing GABAA R (P28472 26-473 partner): as the sequence (P28472 26-473) above
Sequence of α5-containing GABAA R (P18507 40-475): as the sequence (P18507 40-475) above

**Q.** Which results are given for `CC1(C)CC(=O)c2c(SCCCO)sc(-c3nccs3)c2C1` [6,6 dimethyl-3-(3-hydroxypropyl)thio-1-(thiazol-2-yl)-6,7-dihydro-2-benzothiophen-4(5H)-one]?
**A.** learning of the water maze task [1]: improved the learning of the water maze task; long-term memory in the water maze task [1]: improved the long-term memory; time to find the escape platform (escape latency) ([1]; beginning of training (block 1)): about 24 seconds; time to find the escape platform (escape latency) ([1]; end of training (block 4)): about 9.6 seconds; number of crossings of target annulus vs opposite annulus [1, 9]: crossed the “target annulus” more often; time in target annulus vs opposite annulus [1, 9]: spent significantly more time in the target annulus

**Q.** With `CCN(CC)C(=O)c1ncn2c1Cn1nnc(C)c1-c1cc(OC)ccc1-2` [Compound 2] as the compound, how does the activation at 10 µM [2] read?
**A.** 6.2%

**Q.** For `CCc1nnn2c1-c1cc(OC)ccc1-n1cnc(C(=O)N(CC)CC)c1C2` [Compound 7], which activation at 1 µM [2] is on record?
**A.** 11.1%

**Q.** With `CCOC(=O)c1ncn2c1Cn1nnc(C)c1-c1cc(Cl)ccc1-2` [Compound 9] as the compound, how does the activation at 1 µM [2] read?
**A.** 8.3%

**Q.** What does the source list for `CCOC(=O)c1ncn2c1CN(C)C(=O)c1cc(N=[N+]=[N-])ccc1-2` [Ro 15-4513]?
**A.** concentration at 20 min ([3]; cerebellum, read-out: levels of Ro 15-4513 in cerebellum): 0.36 ± 0.02 ng/g; concentration at 20 min ([3]; hippocampus, read-out: levels of Ro 15-4513 in hippocampus): 1.93 ± 0.05 ng/g; higher levels in hippocampus compared with cerebellum ([4]; tracer 1 μg/kg, after vehicle administration): > 5 fold

**Q.** Which “effect on Ro 15-4513 binding in hippocampus” value ([5]; i.v.) does the source give for `CCOC(=O)c1ncn2c1Cn1c(C)nnc1-c1cc(OC)ccc1-2` [ethyl 3-methoxy-7-methyl-9H-benzo[f]imidazo[1,5-a][1,2,4]triazolo[4,3-d][1,4]diazepine-10-carboxylate] here?
**A.** blocked the binding of Ro154513 in the hippocampus; also recorded: reduced Ro 15-4513 binding in hippocampus

**Q.** What about the “GABAA α5 receptor occupancy” value ([5]; 10 mg/kg, i.v.) of the same compound?
**A.** > 90%

**Q.** And the “dose dependence of GABAA α5 receptor occupancy” value [5]?
**A.** dose-dependent

**Q.** What about the “effect on Ro 15-4513 binding/levels in cerebellum” value [4] of the same compound?
**A.** did not affect binding of Ro15413 in the cerebellum; also recorded: without affecting cerebellum levels of Ro 15-4513

**Q.** And the “memory performance relative to vehicle control” value ([6]; 3 mg/kg, four-hour delay RAM, t(7)=4.13, p=0.004, or t(7)=3.08, p=0.018)?
**A.** significantly improved memory performance

**Q.** What about the “memory performance relative to vehicle control” value ([6]; 10 mg/kg, four-hour delay RAM, t(7)=2.82, p=0.026) of the same compound?
**A.** significantly improved memory performance

**Q.** Which Kp ([7]; Long Evans, rat, in vivo, read-out: brain/plasma ratios) does the source give for `COC(=O)c1c(-c2ccccc2)cnnc1-c1ccccc1` [methyl 3,5-diphenylpyridazine-4-carboxylate] here?
**A.** > 1

**Q.** What about the “increase in hippocampal exposure” value ([7]; dose increase from 0.1 to 1 mg/kg, i.v.) of the same compound?
**A.** 12 fold

**Q.** And the “increase in hippocampal exposure” value [7, 10]?
**A.** ~5 fold

**Q.** What about the “increase in plasma exposure” value [7, 10] of the same compound?
**A.** 12 fold

**Q.** What about the concentration at 35 min ([7]; Long Evans, rat, in vivo, 0.1 mg/kg, i.v., read-out: Hippocampus exposure (SEM)) of the same compound?
**A.** 14.6 ng/g

**Q.** And the concentration at 35 min ([7]; Long Evans, rat, in vivo, 1 mg/kg, i.v., read-out: Hippocampus exposure (SEM))?
**A.** 180 ng/g

**Q.** And the concentration at 35 min ([7]; Long Evans, rat, in vivo, 1 mg/kg, i.v., read-out: Plasma exposure (SEM))?
**A.** 62.8 ng/mL

**Q.** And the concentration at 35 min ([7]; Long Evans, rat, in vivo, 10 mg/kg, i.v., read-out: Hippocampus exposure (SEM))?
**A.** 947 ng/g

**Q.** And the concentration at 35 min ([7]; Long Evans, rat, in vivo, 10 mg/kg, i.v., read-out: Plasma exposure (SEM))?
**A.** 764 ng/mL

**Q.** What about the “effect on Ro 15-4513 binding in hippocampus” value ([5]; i.v.) of the same compound?
**A.** blocked the binding of Ro154513 in the hippocampus; also recorded: dose-dependently reduced Ro 15-4513 binding in hippocampus

**Q.** What about the “dose dependence of GABAA α5 receptor occupancy” value [5] of the same compound?
**A.** dose-dependent increase

**Q.** And the “effect on Ro 15-4513 binding/levels in cerebellum” value [4]?
**A.** did not affect binding of Ro15413 in the cerebellum; also recorded: without affecting cerebellum levels of Ro 15-4513

**Q.** And the “α5 in vitro efficacy” value [8]?
**A.** +27

**Q.** And the “average no. of errors ± SEM in retention test” value ([6]; 3 mg/kg i.p., two-hour delay RAM, AI rats)?
**A.** 1.31±0.40

**Q.** What about the “memory performance relative to vehicle control” value ([6]; 3 mg/kg i.p., two-hour delay RAM, t(7)=4.233, p=0.004) of the same compound?
**A.** significantly improved memory performance
